Earlier results as cited in patent EP2537519A1, “NEUROPATHIC PAIN ALLEVIATING AGENT” (HBC Science Laboratory Co., Ltd, priority 2010, dated 2011).

Target: Cav3.2 (Homo sapiens, UniProt O95180)
Conditions: reported by Nelson et al., J Neurosci 2007

Chain of Cav3.2 (O95180 whole entry): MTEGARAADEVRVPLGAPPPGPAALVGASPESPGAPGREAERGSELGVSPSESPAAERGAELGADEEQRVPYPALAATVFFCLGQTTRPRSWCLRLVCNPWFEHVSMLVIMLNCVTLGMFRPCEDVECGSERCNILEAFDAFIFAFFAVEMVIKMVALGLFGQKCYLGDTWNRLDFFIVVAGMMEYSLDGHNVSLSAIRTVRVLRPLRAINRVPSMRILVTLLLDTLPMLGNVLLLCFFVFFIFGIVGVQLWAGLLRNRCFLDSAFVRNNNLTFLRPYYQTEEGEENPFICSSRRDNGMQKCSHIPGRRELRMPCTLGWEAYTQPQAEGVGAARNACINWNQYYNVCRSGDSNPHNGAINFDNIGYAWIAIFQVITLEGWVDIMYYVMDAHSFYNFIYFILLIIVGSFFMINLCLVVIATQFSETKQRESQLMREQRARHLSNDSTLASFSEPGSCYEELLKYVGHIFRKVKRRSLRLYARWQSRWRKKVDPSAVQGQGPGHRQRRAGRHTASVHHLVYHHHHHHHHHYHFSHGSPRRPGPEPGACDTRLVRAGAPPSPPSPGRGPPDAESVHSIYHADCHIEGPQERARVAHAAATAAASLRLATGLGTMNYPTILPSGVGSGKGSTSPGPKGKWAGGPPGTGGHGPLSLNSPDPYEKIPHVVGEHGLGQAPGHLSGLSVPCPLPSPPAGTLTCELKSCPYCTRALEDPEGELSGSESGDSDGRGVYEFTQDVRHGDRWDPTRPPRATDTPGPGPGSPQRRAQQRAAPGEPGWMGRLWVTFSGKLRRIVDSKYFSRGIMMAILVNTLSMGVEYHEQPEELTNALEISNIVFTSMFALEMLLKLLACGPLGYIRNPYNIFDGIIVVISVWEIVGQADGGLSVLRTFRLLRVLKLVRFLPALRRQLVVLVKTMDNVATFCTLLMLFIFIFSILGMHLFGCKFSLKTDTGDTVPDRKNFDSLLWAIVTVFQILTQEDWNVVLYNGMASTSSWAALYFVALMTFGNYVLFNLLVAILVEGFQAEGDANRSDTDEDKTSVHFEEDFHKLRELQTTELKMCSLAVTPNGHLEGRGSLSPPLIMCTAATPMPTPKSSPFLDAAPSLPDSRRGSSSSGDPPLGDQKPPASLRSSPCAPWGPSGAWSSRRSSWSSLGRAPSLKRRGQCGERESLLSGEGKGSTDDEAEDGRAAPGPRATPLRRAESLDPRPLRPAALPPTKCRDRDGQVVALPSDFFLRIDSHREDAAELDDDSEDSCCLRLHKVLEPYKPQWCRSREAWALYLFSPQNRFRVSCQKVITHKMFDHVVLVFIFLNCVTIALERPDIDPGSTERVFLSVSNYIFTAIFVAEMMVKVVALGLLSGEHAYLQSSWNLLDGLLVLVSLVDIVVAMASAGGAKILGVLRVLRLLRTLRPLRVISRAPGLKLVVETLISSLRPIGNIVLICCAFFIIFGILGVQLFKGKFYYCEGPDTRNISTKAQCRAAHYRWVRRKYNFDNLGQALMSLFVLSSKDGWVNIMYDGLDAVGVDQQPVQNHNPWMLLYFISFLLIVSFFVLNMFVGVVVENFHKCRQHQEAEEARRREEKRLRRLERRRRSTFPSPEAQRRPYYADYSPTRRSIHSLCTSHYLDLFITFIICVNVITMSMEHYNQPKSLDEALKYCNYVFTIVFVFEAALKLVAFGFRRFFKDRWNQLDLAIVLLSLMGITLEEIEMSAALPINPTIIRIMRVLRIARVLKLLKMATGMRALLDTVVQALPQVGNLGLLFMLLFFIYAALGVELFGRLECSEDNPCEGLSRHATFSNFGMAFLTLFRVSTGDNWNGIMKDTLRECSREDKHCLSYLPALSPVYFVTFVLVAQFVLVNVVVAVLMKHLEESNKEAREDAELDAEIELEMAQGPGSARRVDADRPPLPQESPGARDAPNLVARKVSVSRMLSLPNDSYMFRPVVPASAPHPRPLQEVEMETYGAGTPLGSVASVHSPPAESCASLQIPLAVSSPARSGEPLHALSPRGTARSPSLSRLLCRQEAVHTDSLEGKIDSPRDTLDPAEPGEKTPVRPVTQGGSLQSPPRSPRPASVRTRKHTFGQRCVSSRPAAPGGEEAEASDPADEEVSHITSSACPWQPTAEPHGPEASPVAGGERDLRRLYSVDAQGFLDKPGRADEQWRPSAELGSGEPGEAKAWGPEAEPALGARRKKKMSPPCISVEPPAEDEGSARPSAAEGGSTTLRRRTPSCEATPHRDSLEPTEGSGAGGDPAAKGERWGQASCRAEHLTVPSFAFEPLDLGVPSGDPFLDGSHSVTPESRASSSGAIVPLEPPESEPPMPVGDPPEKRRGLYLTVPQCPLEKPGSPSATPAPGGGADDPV

SMILES: O=C1O[C@H]([C@@H](O)CO)C(O)=C1O [ascorbic acid]
- inhibition of Cav3.2 among T-type Ca2+ channels: specifically inhibits
